Measured values from ChEMBL document CHEMBL1799989 (Bioorg Med Chem Lett, 2011).
Where “and” joins values, the source holds several entries; their conditions need not be identical. Equal values may be shown once.

Key:
[1] = target: Mitogen-activated protein kinase 14 (Homo sapiens, UniProt Q16539); test: Inhibition of p38alpha assessed as phosphorylation FITC-labeled Hsp27 after 60 mins by fluorescence based cascade assay
Rattus norvegicus [2] = test: Antiinflammatory activity in fasted Lewis rat assessed as inhibition of LPS-induced TNFalpha production at 5 mg/kg, po administered 4 hrs prior LPS challenge measured after 90 mins by ELISA; format: functional; conditions: for inhibition in vivo at 5 mg/kg: Rattus norvegicus, Lewis, po
[3] = (§1) Metabolic stability in human liver microsomes assessed as compound remaining at 2 uM after 45 mins by LC/MS analysis in presence of NADPH; format: ADME, Microsome; conditions: liver microsomes, read-out: Stability
PBMC = test: Antiinflammatory activity in human PBMC assessed as inhibition of LPS-induced TNFalpha release pretreated for 1 hr before LPS treatment measured after 18 hrs; format: functional, cell-based
[4] = (§2) Metabolic stability in rat liver microsomes assessed as compound remaining at 2 uM after 45 mins by LC/MS analysis in presence of NADPH; format: ADME, Microsome; conditions: liver microsomes, read-out: Stability
Liver microsomes [5] = test: as §1; format: ADME, Microsome; conditions: microsomes, 0.75 h, 2 µM
[6] = Half life in Beagle dog administered as crystalline form; format: ADME, organism-based, Canis lupus familiaris; conditions: in vivo
[7] = Apparent permeability across apical to basolateral side in human Caco2 cells at 1 uM; format: ADME, cell-based; conditions: Caco-2
[8] = Oral bioavailability in Sprague-Dawley rat at 2 mg/kg administered as solution; format: ADME, organism-based; conditions: in vivo
[9] = Oral bioavailability in cynomolgus monkey administered as solution; format: ADME, organism-based, Macaca fascicularis; conditions: in vivo
[10] = Oral bioavailability in Sprague-Dawley rat at 15 mg/kg administered as solution; format: ADME, organism-based; conditions: in vivo
[11] = Half life in cynomolgus monkey administered as crystalline form; format: ADME, organism-based, Macaca fascicularis; conditions: in vivo
[12] = Half life in Sprague-Dawley rat administered as crystalline form; format: ADME, organism-based; conditions: in vivo
[13] = Solubility of the compound in phosphate buffer at pH 7; format: physicochemical
Rattus norvegicus [14] = test: Antiarthritic activity in Lewis rat assessed as inhibition of streptococcal cell wall-induced paw swelling at 2 mg/kg/day, po administered on day 10 of streptococcal cell wall challenge continued until day 21 by plethysmometer; format: functional
[15] = Oral bioavailability in Sprague-Dawley rat administered as crystalline form; format: ADME, organism-based; conditions: in vivo
[16] = Apparent permeability across apical to basolateral side in human Caco2 cells at 100 uM; format: ADME, cell-based; conditions: Caco-2
[17] = Oral bioavailability in Beagle dog administered as solution; format: ADME, organism-based, Canis lupus familiaris; conditions: in vivo
[18] = Oral bioavailability in cynomolgus monkey administered as crystalline form; format: ADME, organism-based, Macaca fascicularis; conditions: in vivo
Liver microsomes [19] = test: as §2; format: ADME, Microsome; conditions: microsomes, 0.75 h, 2 µM
Rattus norvegicus [20] = test: Antiarthritic activity in Lewis rat assessed as inhibition of streptococcal cell wall-induced paw swelling at 30 mg/kg/day, po administered on day 10 of streptococcal cell wall challenge continued until day 21 by plethysmometer; format: functional
Rattus norvegicus [21] = test: Antiarthritic activity in Lewis rat assessed as inhibition of streptococcal cell wall-induced paw swelling at 60 mg/kg/day, po administered on day 10 of streptococcal cell wall challenge continued until day 21 by plethysmometer; format: functional
Rattus norvegicus [22] = test: Antiarthritic activity in Lewis rat assessed as inhibition of streptococcal cell wall-induced paw swelling at 10 mg/kg/day, po administered on day 10 of streptococcal cell wall challenge continued until day 21 by plethysmometer; format: functional

Mitogen-activated protein kinase 14, sequence (Q16539 whole entry): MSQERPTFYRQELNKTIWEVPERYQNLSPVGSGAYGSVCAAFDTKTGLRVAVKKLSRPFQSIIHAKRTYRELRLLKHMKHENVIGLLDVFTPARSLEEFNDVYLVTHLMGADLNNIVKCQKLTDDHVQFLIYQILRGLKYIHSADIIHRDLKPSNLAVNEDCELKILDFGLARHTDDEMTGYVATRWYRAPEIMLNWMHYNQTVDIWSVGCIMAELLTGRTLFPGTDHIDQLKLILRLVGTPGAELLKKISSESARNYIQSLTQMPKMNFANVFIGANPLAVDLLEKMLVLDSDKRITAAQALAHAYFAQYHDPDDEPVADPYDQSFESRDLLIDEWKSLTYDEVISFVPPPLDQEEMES

SMILES | IC50 [1] | inhibition in vivo at 5 mg/kg (Rattus norvegicus [2]) | remaining at 0.75 h, 2 µM [3] | IC50 (PBMC; Homo sapiens, PBMC) | remaining at 0.75 h, 2 µM [4] | further results
CNC(=O)c1ccc(-n2c(C)cc(OCc3ccc(F)cc3F)c(Br)c2=O)c(C)c1 | 34 nM | 54% | 93% | 156 nM | 86% | 
CNC(=O)c1ccc(C)c(-n2c(C)cc(OCc3ccc(F)cc3F)c(Br)c2=O)c1 [PH-797804] |  |  | 91% |  | 95% | inhibition (INH) (Rattus norvegicus [2]; 5 mg/kg): 95% and 38%; Stability (Liver microsomes [5]): 98% and 92%; half-life [6]: 11.4 h; Papp A→B at 1 µM [7]: 10 ×10⁻⁶ cm/s; bioavailability [8]: > 100%; bioavailability [9]: 36.2%; bioavailability [10]: 80.4%; half-life [11]: 3.93 h; half-life [12]: 2.6 h; solubility [13]: < 5 µg/mL; inhibition in vivo at 2 mg/kg/day (Rattus norvegicus [14]): 80%; IC50 (PBMC; pbmc): 15 nM and 3.4 nM; bioavailability [15]: 35.7%; Papp A→B at 100 µM [16]: 25 ×10⁻⁶ cm/s; bioavailability [17]: 59.6%; bioavailability [18]: 23.2%; Stability (Liver microsomes [19]): 100%
CNC(=O)c1ccc(OC)c(-n2c(C)cc(OCc3ccc(F)cc3F)c(Br)c2=O)c1 | 21 nM | 20% |  | 107 nM |  | 
CNC(=O)c1ccc(F)c(-n2c(C)cc(OCc3ccc(F)cc3F)c(Br)c2=O)c1 | 8.5 nM | 83% |  | 46 nM |  | 
CNC(=O)c1ccc(C(=O)O)c(-n2c(C)cc(OCc3ccc(F)cc3F)c(Br)c2=O)c1 | > 10000 nM |  |  | > 25000 nM |  | 
CNC(=O)c1ccc(Cl)c(-n2c(C)cc(OCc3ccc(F)cc3F)c(Br)c2=O)c1 | 3 nM | 89% |  | 18 nM |  | inhibition in vivo at 30 mg/kg/day (Rattus norvegicus [20]): 90%
CNC(=O)c1ccc(CO)c(-n2c(C)cc(OCc3ccc(F)cc3F)c(Br)c2=O)c1 | 325 nM |  |  |  |  | 
Cc1ccc(C(=O)N(C)C)cc1-n1c(C)cc(OCc2ccc(F)cc2F)c(Br)c1=O | 9.5 nM | 96% | 75% | 28.5 nM | 71% | inhibition in vivo at 60 mg/kg/day (Rattus norvegicus [21]): 74%
CNC(=O)c1ccc(C)c(-n2c(CO)cc(OCc3ccc(F)cc3F)c(Br)c2=O)c1 | 4 nM | 1% |  | 16 nM |  | 
Cc1ccc(C(N)=O)cc1-n1c(C)cc(OCc2ccc(F)cc2F)c(Br)c1=O | 2 nM | 98% | 84% | 2.5 nM | 100% | inhibition in vivo at 10 mg/kg/day (Rattus norvegicus [22]): 87%
CNC(=O)c1cccc(-n2c(C)cc(OCc3ccc(F)cc3F)c(Br)c2=O)c1C | 48.5 nM | 61% | 89% | 193 nM | 91% | 
